Measurements as given in ChEMBL document CHEMBL1152397, “Cytotoxic and antimycobacterial prenylated flavonoids from the roots of Eriosema chinense” (J Nat Prod, 2009).
Values after ≈ are worked out from the molar mass of the structure shown.

Columns and labels:
Vero = assay: Cytotoxicity against african green monkey Vero cells by sulforhodamine B assay; format: cell-based; details: Chlorocebus sabaeus
KB = assay: Cytotoxicity against human KB cells by sulforhodamine B assay; format: functional, cell-based
[1] = test system: Mycobacterium tuberculosis; assay: Antimycobacterial activity against Mycobacterium tuberculosis H37Ra after […] by microplate alamar Blue assay; format: functional
NCI-H187 = assay: Cytotoxicity against human NCI-H187 cells by sulforhodamine B assay; format: functional, cell-based

Question: How did the IC50 (Vero) turn out when CC(C)=CCc1c2c(c(O)c3c(=O)c(O)c(-c4ccc(O)cc4)oc13)C=CC(C)(C)O2 [DEHYDROLUPINIFOLINOL] was run?
Answer: 11.1 µg/mL (≈ 26.4 µM)

Question: What about the IC50 (KB) of the same compound?
Answer: 5.8 µg/mL (≈ 13.8 µM)

Question: And the MIC [1]?
Answer: 12.5 µg/mL (≈ 29.7 µM)

Question: And the IC50 (NCI-H187)?
Answer: 3.9 µg/mL (≈ 9.28 µM)

Question: CC(C)=CCc1c2c(c(O)c3c1O[C@H](c1ccc(O)cc1)[C@@H](O)C3=O)C=CC(C)(C)O2 [LUPINIFOLINOL] was tested. Which IC50 (KB) did it give?
Answer: 1.73 µg/mL (≈ 4.09 µM)

Question: And the MIC [1]?
Answer: 25 µg/mL (≈ 59.2 µM)

Question: What about the IC50 (NCI-H187) of the same compound?
Answer: 3.5 µg/mL (≈ 8.28 µM)

Question: How did the IC50 (Vero) turn out when COc1ccc([C@H]2Oc3c(CC=C(C)C)c4c(c(O)c3C(=O)[C@@H]2O)C=CC(C)(C)O4)cc1 [KHONKLONGINOL A] was run?
Answer: 7.9 µg/mL (≈ 18.1 µM)

Question: What about the IC50 (KB) of the same compound?
Answer: 3.1 µg/mL (≈ 7.1 µM)

Question: And the MIC [1]?
Answer: 25 µg/mL (≈ 57.3 µM)

Question: And the IC50 (NCI-H187)?
Answer: 3 µg/mL (≈ 6.87 µM)

Question: What does the source list for CC(C)=CCc1c2c(c(O)c3c1O[C@H](c1ccc(O)cc1)CC3=O)C=CC(C)(C)O2 [LUPINIFOLIN]?
Answer: IC50 (KB): 2.4 µg/mL (≈ 5.9 µM); MIC [1]: 12.5 µg/mL (≈ 30.8 µM); IC50 (NCI-H187): 6.5 µg/mL (≈ 16 µM)

Question: For CC(C)=CCc1c(O)c2c(c3c1OC(C)(C)C=C3)O[C@H](c1ccc(O)cc1O)CC2=O [ERIOSEMAONE A], which IC50 (KB) is on record?
Answer: 5.8 µg/mL (≈ 13.7 µM)

Question: And the MIC [1]?
Answer: 12.5 µg/mL (≈ 29.6 µM)

Question: What about the IC50 (NCI-H187) of the same compound?
Answer: 6 µg/mL (≈ 14.2 µM)

Question: COc1cccc2c1C(=O)c1c(O)c3c(c(O)c1C2=O)C[C@@](O)(C(=O)CO)C[C@@H]3O[C@H]1C[C@H](N)[C@H](O)[C@H](C)O1 [DOXORUBICIN] was tested. Which IC50 (KB) did it give?
Answer: 0.12 µg/mL (≈ 0.221 µM)

Question: And the IC50 (NCI-H187)?
Answer: 0.042 µg/mL (≈ 0.0773 µM)

Question: How did the IC50 (Vero) turn out when COc1ccc([C@@H]2CC(=O)c3c(O)c4c(c(CC=C(C)C)c3O2)OC(C)(C)C=C4)c(O)c1 [KHONKLONGINOL H] was run?
Answer: 6.4 µg/mL (≈ 14.7 µM)

Question: And the IC50 (KB)?
Answer: 5.4 µg/mL (≈ 12.4 µM)

Question: And the MIC [1]?
Answer: 25 µg/mL (≈ 57.3 µM)

Question: What about the IC50 (NCI-H187) of the same compound?
Answer: 3.3 µg/mL (≈ 7.56 µM)

Question: NNC(=O)c1ccncc1 [ISONIAZID] was tested. Which MIC [1] did it give?
Answer: 0.023 µg/mL (≈ 0.168 µM)

Question: For Cc1c2ccncc2c(C)c2c1[nH]c1ccccc12 [ELLIPTECINE], which IC50 (KB) is on record?
Answer: 0.37 µg/mL (≈ 1.5 µM)

Question: And the IC50 (NCI-H187)?
Answer: 0.44 µg/mL (≈ 1.79 µM)

Question: COc1ccc(-c2oc3c(CC=C(C)C)c4c(c(O)c3c(=O)c2O)C=CC(C)(C)O4)cc1 [KHONKLONGINOL F] was tested. Which IC50 (Vero) did it give?
Answer: 7 µg/mL (≈ 16.1 µM)

Question: What about the IC50 (KB) of the same compound?
Answer: 6.7 µg/mL (≈ 15.4 µM)

Question: What about the MIC [1] of the same compound?
Answer: 100 µg/mL (≈ 230 µM)

Question: And the IC50 (NCI-H187)?
Answer: 2.4 µg/mL (≈ 5.52 µM)

Question: Which MIC [1] does the source give for CN[C@@H]1[C@H](O[C@H]2[C@H](O[C@H]3[C@H](O)[C@@H](O)[C@H](N=C(N)N)[C@@H](O)[C@@H]3N=C(N)N)O[C@@H](C)[C@]2(O)C=O)O[C@@H](CO)[C@H](O)[C@H]1O [STREPTOMYCIN] here?
Answer: 0.156 µg/mL (≈ 0.268 µM)

Question: Which results are given for CC(C)=CCc1c2c(c(O)c3c1O[C@H](c1ccc(O)cc1O)CC3=O)C=CC(C)(C)O2 [FLEMICHIN D]?
Answer: IC50 (KB): 3.3 µg/mL (≈ 7.81 µM); MIC [1]: 12.5 µg/mL (≈ 29.6 µM); IC50 (NCI-H187): 2.1 µg/mL (≈ 4.97 µM)

Question: What does the source list for COc1ccc([C@H]2Oc3c(CC=C(C)C)c4c(c(O)c3C(=O)[C@H]2O)C=CC(C)(C)O4)cc1 [KHONKLONGINOL B]?
Answer: IC50 (Vero): 6.9 µg/mL (≈ 15.8 µM); IC50 (KB): 3.8 µg/mL (≈ 8.71 µM); MIC [1]: 50 µg/mL (≈ 115 µM); IC50 (NCI-H187): 4.3 µg/mL (≈ 9.85 µM)
